Experimental data from patent US9845340B2, “Peptides that specifically bind HGF receptor (cMet) and uses thereof” (Dyax Corp., priority 2003, dated 2017).

Experiments:
cMet-Fc fusion protein = cMet-Fc fusion protein (Homo sapiens, UniProt P08581); test: Protein phage ELISA: peptide-displaying phage binding to soluble cMet-Fc versus TRAIL-Fc; conditions: phage isolate; cMet-Fc vs. TRAIL-Fc
Procedure, shortened: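 Phage displaying selected peptides were incubated 2 h at room temperature on wells coated with 0.5 μg/mL cMet-Fc, with TRAIL-Fc coating as the unrelated-Fc specificity control.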

[1] = molecular target: T1, 3T3 cells that over-express human cMet (Homo sapiens, UniProt P08581); test: Whole cell ELISA of peptide-displaying phage; assay type: cell-based; conditions: phage isolate; 3T3 cells expressing human cMet vs. non-expressing 3T3 cells
T1 construct: expressed in transfected cells; host or cells: 3T3 cells
T1 sequence (P08581 25-1390): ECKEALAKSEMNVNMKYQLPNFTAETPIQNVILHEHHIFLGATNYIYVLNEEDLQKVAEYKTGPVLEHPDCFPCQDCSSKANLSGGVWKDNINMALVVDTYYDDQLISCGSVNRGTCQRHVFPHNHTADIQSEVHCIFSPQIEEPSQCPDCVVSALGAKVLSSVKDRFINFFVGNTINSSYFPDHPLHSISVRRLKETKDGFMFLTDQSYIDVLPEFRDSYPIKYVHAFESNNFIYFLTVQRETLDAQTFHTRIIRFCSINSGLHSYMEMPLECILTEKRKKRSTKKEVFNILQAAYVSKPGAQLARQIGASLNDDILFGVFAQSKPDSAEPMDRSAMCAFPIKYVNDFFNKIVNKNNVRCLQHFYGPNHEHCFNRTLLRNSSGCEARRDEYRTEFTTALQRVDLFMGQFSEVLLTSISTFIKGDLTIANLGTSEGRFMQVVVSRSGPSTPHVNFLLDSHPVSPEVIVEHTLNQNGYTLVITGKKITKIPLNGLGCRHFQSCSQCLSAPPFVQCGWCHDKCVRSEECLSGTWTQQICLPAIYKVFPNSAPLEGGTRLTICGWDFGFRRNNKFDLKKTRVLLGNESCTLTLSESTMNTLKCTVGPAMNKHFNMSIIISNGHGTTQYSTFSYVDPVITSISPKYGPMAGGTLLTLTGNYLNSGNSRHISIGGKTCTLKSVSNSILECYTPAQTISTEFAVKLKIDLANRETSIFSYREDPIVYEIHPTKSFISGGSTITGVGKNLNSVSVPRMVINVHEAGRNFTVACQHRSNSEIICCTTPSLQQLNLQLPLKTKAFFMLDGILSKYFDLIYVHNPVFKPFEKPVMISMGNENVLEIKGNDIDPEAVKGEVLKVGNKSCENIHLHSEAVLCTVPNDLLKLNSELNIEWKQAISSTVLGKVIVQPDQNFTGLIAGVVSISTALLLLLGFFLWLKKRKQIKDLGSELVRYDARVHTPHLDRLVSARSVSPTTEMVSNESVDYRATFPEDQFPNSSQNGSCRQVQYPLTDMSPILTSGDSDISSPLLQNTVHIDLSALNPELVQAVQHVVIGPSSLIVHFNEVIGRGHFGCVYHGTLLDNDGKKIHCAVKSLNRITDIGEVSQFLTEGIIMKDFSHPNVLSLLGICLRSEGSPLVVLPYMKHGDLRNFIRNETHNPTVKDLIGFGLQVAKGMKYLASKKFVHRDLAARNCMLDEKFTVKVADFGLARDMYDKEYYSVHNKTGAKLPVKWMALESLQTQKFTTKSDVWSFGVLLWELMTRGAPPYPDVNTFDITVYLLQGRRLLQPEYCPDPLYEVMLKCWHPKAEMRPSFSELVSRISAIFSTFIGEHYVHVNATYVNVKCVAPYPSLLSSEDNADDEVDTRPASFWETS
Procedure, shortened: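 Phage displaying peptides, pre-blocked 1 h at 37 °C, incubated 1 h at RT on glutaraldehyde-fixed (0.1%, 12 min, 37 °C) cMet-overexpressing 3T3 cells (10^5 per well). Binding read out by HRP anti-M13 antibody after PBST washing.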

Sequence of cMet-Fc fusion protein (P08581 25-307 limits assumed): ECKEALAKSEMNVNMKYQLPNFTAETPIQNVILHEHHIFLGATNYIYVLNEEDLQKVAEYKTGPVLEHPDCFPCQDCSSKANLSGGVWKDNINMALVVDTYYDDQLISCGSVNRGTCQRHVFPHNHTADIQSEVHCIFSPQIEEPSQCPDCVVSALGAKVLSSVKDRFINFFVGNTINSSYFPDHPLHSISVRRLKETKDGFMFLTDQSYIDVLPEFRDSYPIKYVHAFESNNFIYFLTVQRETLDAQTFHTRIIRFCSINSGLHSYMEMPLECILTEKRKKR
Sequence of cMet-Fc fusion protein (P08581 with tags, fused parts or gaps limits assumed): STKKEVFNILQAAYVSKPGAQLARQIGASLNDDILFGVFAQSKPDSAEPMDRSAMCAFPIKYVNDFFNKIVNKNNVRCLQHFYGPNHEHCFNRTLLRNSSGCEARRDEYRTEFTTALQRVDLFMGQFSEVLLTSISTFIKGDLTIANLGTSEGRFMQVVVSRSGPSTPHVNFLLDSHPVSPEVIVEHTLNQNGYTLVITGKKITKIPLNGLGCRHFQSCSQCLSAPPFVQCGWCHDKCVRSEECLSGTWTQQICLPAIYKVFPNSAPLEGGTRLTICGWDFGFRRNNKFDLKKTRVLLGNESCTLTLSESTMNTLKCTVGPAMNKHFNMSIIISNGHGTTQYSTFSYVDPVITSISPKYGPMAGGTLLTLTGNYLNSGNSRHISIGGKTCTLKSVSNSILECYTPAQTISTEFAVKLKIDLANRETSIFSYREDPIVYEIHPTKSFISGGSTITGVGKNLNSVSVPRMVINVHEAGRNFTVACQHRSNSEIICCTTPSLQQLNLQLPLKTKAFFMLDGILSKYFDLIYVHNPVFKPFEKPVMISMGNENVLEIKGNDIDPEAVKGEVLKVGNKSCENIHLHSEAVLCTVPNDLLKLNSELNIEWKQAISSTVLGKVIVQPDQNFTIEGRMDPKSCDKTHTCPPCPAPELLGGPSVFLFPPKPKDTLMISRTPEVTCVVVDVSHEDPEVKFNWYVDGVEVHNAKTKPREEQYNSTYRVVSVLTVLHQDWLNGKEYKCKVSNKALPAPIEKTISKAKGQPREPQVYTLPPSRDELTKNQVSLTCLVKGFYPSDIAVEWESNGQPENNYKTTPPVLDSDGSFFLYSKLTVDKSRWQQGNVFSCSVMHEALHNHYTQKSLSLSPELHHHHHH

| SMILES | Protein ELISA (cMet-Fc fusion protein) [fold over background] | WC ELISA [1] [fold over background] |
| --- | --- | --- |
| CC[C@H](C)[C@H](NC(=O)[C@H](CC(C)C)NC(=O)[C@H](CCCCN)NC(=O)[C@H](CCC(=O)O)NC(=O)[C@@H](NC(=O)[C@@H](NC(=O)[C@@H](NC(=O)[C@H](C)NC(=O)[C@H](CO)NC(=O)[C@H](CC(C)C)NC(=O)[C@H](Cc1c[nH]c2ccccc12)NC(=O)[C@H](CC(=O)O)NC(=O)[C@@H]1CCCN1C(=O)[C@@H](NC(=O)[C@H](CCC(N)=O)NC(=O)[C@H](C)NC(C)=O)C(C)C)C(C)C)C(C)C)[C@@H](C)CC)C(=O)N[C@@H](CCC(=O)O)C(=O)N[C@@H](Cc1ccc(O)cc1)C(=O)NCC(=O)N[C@@H](CCSC)C(=O)N[C@@H](CCSC)C(=O)N[C@H](C(=O)NCC(=O)NCC(=O)NCC(=O)N[C@@H](CCCCNC(=O)c1ccc2c(c1)C(=O)OC21c2ccc(O)cc2Oc2cc(O)ccc21)C(N)=O)C(C)C [SEQ ID NO: 464] | 4.4 | 1.37 |
| CC[C@H](C)[C@H](NC(=O)[C@H](CC(=O)O)NC(=O)[C@H](Cc1ccccc1)NC(=O)[C@H](Cc1ccccc1)NC(=O)[C@H](CCC(=O)O)NC(=O)[C@H](Cc1c[nH]c2ccccc12)NC(=O)[C@@H](NC(=O)[C@H](CCC(=O)O)NC(=O)[C@H](CCCCN)NC(=O)[C@H](CCC(N)=O)NC(=O)[C@H](C)NC(C)=O)[C@@H](C)O)C(=O)N[C@H](C(=O)N[C@@H](Cc1ccc(O)cc1)C(=O)NCC(=O)N[C@@H](CO)C(=O)NCC(=O)N[C@@H](Cc1c[nH]c2ccccc12)C(=O)N[C@@H](CCCCN)C(=O)N[C@@H](Cc1ccccc1)C(=O)N[C@@H](CC(N)=O)C(=O)N[C@@H](CO)C(=O)N1CCC[C@H]1C(=O)NCC(=O)NCC(=O)NCC(=O)N[C@@H](CCCCNC(=O)c1ccc2c(c1)C(=O)OC21c2ccc(O)cc2Oc2cc(O)ccc21)C(N)=O)C(C)C [SEQ ID NO: 466] | 4.0 | 1.23 |
| CSCC[C@H](NC(=O)[C@H](Cc1ccccc1)NC(=O)[C@H](CCC(N)=O)NC(=O)[C@@H](NC(=O)[C@@H]1CCCN1C(=O)[C@H](CCSC)NC(=O)[C@H](Cc1c[nH]c2ccccc12)NC(=O)[C@@H](NC(=O)[C@H](CC(=O)O)NC(=O)[C@H](CCSC)NC(=O)[C@H](CCC(N)=O)NC(=O)[C@H](CCCNC(=N)N)NC(=O)[C@H](CCC(N)=O)NC(=O)[C@@H](NC(=O)[C@H](CO)NC(=O)[C@H](Cc1c[nH]cn1)NC(=O)[C@H](CCC(N)=O)NC(=O)[C@H](C)NC(C)=O)C(C)C)C(C)C)C(C)C)C(=O)N[C@@H](C)C(=O)NCC(=O)N[C@@H](Cc1ccccc1)C(=O)N[C@H](C(=O)NCC(=O)NCC(=O)NCC(=O)N[C@@H](CCCCNC(=O)c1ccc2c(c1)C(=O)OC21c2ccc(O)cc2Oc2cc(O)ccc21)C(N)=O)[C@@H](C)O [SEQ ID NO: 467] | 3.9 | 1.30 |
| CC[C@H](C)[C@H](NC(=O)[C@H](C)NC(=O)[C@@H](NC(=O)[C@H](Cc1ccccc1)NC(=O)[C@H](Cc1ccccc1)NC(=O)[C@H](CC(N)=O)NC(=O)[C@H](CCCNC(=N)N)NC(=O)[C@@H](NC(=O)[C@H](Cc1c[nH]cn1)NC(=O)[C@H](CC(=O)O)NC(=O)[C@@H](NC(=O)[C@H](Cc1c[nH]c2ccccc12)NC(=O)[C@H](CC(C)C)NC(=O)[C@H](CCC(=O)O)NC(=O)[C@H](Cc1ccccc1)NC(=O)CNC(=O)[C@H](CCC(N)=O)NC(=O)[C@H](C)NC(C)=O)C(C)C)[C@@H](C)O)[C@@H](C)CC)C(=O)N[C@@H](CO)C(=O)N1CCC[C@H]1C(=O)NCC(=O)NCC(=O)NCC(=O)N[C@@H](CCCCNC(=O)c1ccc2c(c1)C(=O)OC21c2ccc(O)cc2Oc2cc(O)ccc21)C(N)=O [SEQ ID NO: 469] | 3.8 | 1.20 |
